Experimental findings from patent US20240270699A1, “COMPOUNDS HAVING N-ARYLPYRIMIDIN-2-AMINE DERIVATIVES AS THERAPEUTIC AGENTS” (Lomond Therapeutics, Inc., priority 2021, published 2024) are described below.

A word on the IC50: it is the concentration at which inhibition is half-maximal.

In one assay the test system is Jurkat cells. Description: IL-2 release Jurkat assay (anti-CD3/anti-CD28 stimulation, IL-2 ELISA). It counts as cell-based, human. Conditions: activation with 400 ng/mL aCD3 + 400 ng/mL aCD28, 24 hours. (In general: ELISA stands for enzyme-linked immunosorbent assay.)
The next assay concerns the target T1, recombinant HPK1 protein (Homo sapiens, UniProt Q92918).
T1 construct: purchased Promega V6398
T1 sequence (Q92918 1-346 limits assumed): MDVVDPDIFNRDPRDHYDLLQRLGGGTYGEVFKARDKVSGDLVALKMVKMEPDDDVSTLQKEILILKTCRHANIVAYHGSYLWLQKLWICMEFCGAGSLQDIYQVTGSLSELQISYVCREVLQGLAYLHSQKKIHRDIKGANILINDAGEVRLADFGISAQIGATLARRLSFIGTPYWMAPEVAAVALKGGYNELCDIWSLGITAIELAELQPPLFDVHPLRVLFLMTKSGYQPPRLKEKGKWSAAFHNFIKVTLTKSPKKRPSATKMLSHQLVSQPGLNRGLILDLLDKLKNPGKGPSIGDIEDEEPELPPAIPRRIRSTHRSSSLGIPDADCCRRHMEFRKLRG
Description: Primary assay of HPK1 enzymatic activity inhibition (ADP-Glo luminescence). It counts as biochemical. Conditions: recombinant HPK1, MBP substrate, 1 hour at room temperature.

The mark [1] stands for this setting: Table B: Jurkat, 1.5 μM of tested compounds.
[2] abbreviates: Table C: Jurkat, 6 μM of tested compounds, stimulated vehicle = A.
[3] abbreviates: Table G: Jurkat, 1.0 μM of tested compounds.
Where [4] appears, read: Table D: Jurkat, 6 μM of tested compounds, stimulated vehicle = B.

Each structure is given as a SMILES string. Some results are limits rather than exact numbers.

`CCOC(=O)c1cnc(Nc2ccc3c(c2)CCN(C)C3=O)nc1N[C@H](CO)c1ccccc1` [Compound 122, Ethyl 4-{[(1S)-2-hydroxy-1-phenylethyl]amino}-2-[(2-methyl-1-oxo-1,2,3,4-tetrahydroisoquinolin-6-yl)amino]pyrimidine-5-carboxylate]: in the assay with Jurkat cells (setting [1]), the “IL-2, pg/mL stimulated” value is “C (25.0 pg/mL≤IL-2<35.0 pg/mL)”. Also, the IC50 at recombinant HPK1 protein is below 50 nM.

In the case of `Cc1cc(Nc2ncc(C(=O)NC3CCCC3)c(N[C@H](CO)c3ccccc3)n2)ccc1S(C)(=O)=O` [Compound 434, N-cyclopentyl-4-{[(1S)-2-hydroxy-1-phenylethyl]amino}-2-{[3-methyl-4-(methylsulfonyl)phenyl]amino}pyrimidine-5-carboxamide], the “IL-2, pg/mL stimulated” value in the assay with Jurkat cells (setting [1]) is on record as “B (5.0 pg/mL≤IL-2<25.0 pg/mL)”. Besides, on recombinant HPK1 protein, the IC50 was 200 to 500 nM.

With `CCOC(=O)c1cnc(Nc2cccc(S(C)(=O)=O)c2)nc1N[C@H](CO)c1ccccc1` [Compound 69], the “IL-2, pg/mL stimulated” value in the assay with Jurkat cells (setting [2]) is recorded as “B (50 pg/mL≤IL-2<100 pg/mL)”. For the same molecule, on recombinant HPK1 protein, the half-maximal inhibitory concentration (IC50) lay in the range of 200 to 500 nM.

`Cn1cc(-c2cnc(Nc3ccc4c(c3)CCNC4=O)nc2N[C@H](CO)c2ccccc2)cn1` [Compound 584, 6-[[4-[[(1S)-2-hydroxy-1-phenyl-ethyl]amino]-5-(1-methylpyrazol-4-yl)pyrimidin-2-yl]amino]-3,4-dihydro-2H-isoquinolin-1-one]: the “IL-2, pg/mL stimulated” value with Jurkat cells (Table F: Jurkat, 1.0 μM of tested compounds) is given as “A (IL-2<50 pg/mL)”. The half-inhibitory concentration (IC50) at recombinant HPK1 protein was below 50 nM.

Take `CN1CCc2cc(Nc3ncc(C(=O)NC4CCCC4)c(N[C@H](CO)c4ccccc4)n3)ccc2C1=O` [Compound 389, N-cyclopentyl-4-{[(1S)-2-hydroxy-1-phenylethyl]amino}-2-[(2-methyl-1-oxo-1,2,3,4-tetrahydroisoquinolin-6-yl)amino]pyrimidine-5-carboxamide]: the “IL-2, pg/mL stimulated” value in the assay with Jurkat cells (setting [1]) was “C (25.0 pg/mL≤IL-2<35.0 pg/mL)”. At recombinant HPK1 protein, the 50% inhibitory concentration (IC50) was 50 to 200 nM.

`CCOC(=O)c1cnc(Nc2ccc3c(c2)CCCNC3=O)nc1N[C@H](CO)c1ccccc1` [Compound 566, ethyl 4-[[(1S)-2-hydroxy-1-phenyl-ethyl]amino]-2-[(1-oxo-2,3,4,5-tetrahydro-2-benzazepin-7-yl)amino]pyrimidine-5-carboxylate]: the “IL-2, pg/mL stimulated” value with Jurkat cells (Table E: Jurkat, 1.5 μM of tested compounds) is reported as “D (150 pg/mL≤IL-2)”. Moreover, the IC50 at recombinant HPK1 protein was below 50 nM.

Regarding `CNC(=O)c1cnc(Nc2ccc(S(C)(=O)=O)c(C)c2)nc1N[C@H](CO)c1ccccc1` [Compound 65, 4-{[(1S)-2-hydroxy-1-phenylethyl]amino}-N-methyl-2-{[3-methyl-4-(methylsulfonyl)phenyl]amino}pyrimidine-5-carboxamide], the “IL-2, pg/mL stimulated” value with Jurkat cells (setting [1]) is on record as “D (35.0 pg/mL≤IL-2)”. For the same molecule, the IC50 on recombinant HPK1 protein was in the range of 50 to 200 nM.

For the molecule `CCNC(=O)c1cnc(Nc2ccc(F)c(-c3ccccc3)c2)nc1N[C@H](CO)c1ccccc1` [Compound 189, N-ethyl-2-[(6-fluorobiphenyl-3-yl)amino]-4-{[(1S)-2-hydroxy-1-phenylethyl]amino}pyrimidine-5-carboxamide], in the assay with Jurkat cells (setting [1]), the “IL-2, pg/mL stimulated” value was “C (25.0 pg/mL≤IL-2<35.0 pg/mL)”. At recombinant HPK1 protein, the 50% inhibitory concentration (IC50) fell in the range of 200 to 500 nM.

Take `Cc1cc(Nc2ncc(C(=O)NC(C)C)c(N[C@H](CO)c3ccccc3)n2)ccc1S(C)(=O)=O` [Compound 267, 4-{[(1S)-2-hydroxy-1-phenylethyl]amino}-2-{[3-methyl-4-(methylsulfonyl)phenyl]amino}-N-(propan-2-yl)pyrimidine-5-carboxamide]: the “IL-2, pg/mL stimulated” value with Jurkat cells (setting [1]) is reported as “D (35.0 pg/mL≤IL-2)”. For the same molecule, the half-maximal inhibitory concentration (IC50) at recombinant HPK1 protein was 50 to 200 nM.

Turning to `CCOC(=O)c1cnc(Nc2ccc(C(=O)N(C)C)c(Cl)c2)nc1N[C@H](CO)c1ccccc1` [Compound 266, Ethyl 2-[3-chloro-4-(dimethylcarbamoyl)anilino]-4-[[(1S)-2-hydroxy-1-phenyl-ethyl]amino]pyrimidine-5-carboxylate], in the assay with Jurkat cells (setting [2]), the “IL-2, pg/mL stimulated” value is listed as “C (100 pg/mL≤IL-2<150 pg/mL)”. The IC50 at recombinant HPK1 protein lay within 200 to 500 nM.

With `CCOC(=O)c1cnc(Nc2ccc3c(c2)CCN(CC)C3=O)nc1N[C@H](CO)c1ccccc1` [Compound 218, Ethyl 2-[(2-ethyl-1-oxo-3,4-dihydroisoquinolin-6-yl)amino]-4-[[(1S)-2-hydroxy-1-phenyl-ethyl]amino]pyrimidine-5-carboxylate], the “IL-2, pg/mL stimulated” value in the assay with Jurkat cells (setting [2]) is given as “D (150 pg/mL≤IL-2)”. In addition, the half-maximal inhibitory concentration (IC50) on recombinant HPK1 protein was in the range of 50 to 200 nM.

Take `CS(=O)(=O)c1cnc(Nc2ccc3c(c2)CCNC3=O)nc1N[C@H](CO)c1ccccc1` [Compound 564, 6-[[4-[[(1S)-2-hydroxy-1-phenyl-ethyl]amino]-5-methylsulfonyl-pyrimidin-2-yl]amino]-3,4-dihydro-2H-isoquinolin-1-one]: in the assay with Jurkat cells (setting [1]), the “IL-2, pg/mL stimulated” value is reported as “B (5.0 pg/mL≤IL-2<25.0 pg/mL)”. Moreover, the half-maximal inhibitory concentration (IC50) at recombinant HPK1 protein is below 50 nM.

Regarding `CCOC(=O)c1cnc(Nc2ccc3c(c2)CCNC3=O)nc1N[C@H](CO)c1cccc(OC)c1` [Compound 570, ethyl 4-[[(1S)-2-hydroxy-1-(3-methoxyphenyl)ethyl]amino]-2-[(1-oxo-3,4-dihydro-2H-isoquinolin-6-yl)amino]pyrimidine-5-carboxylate], the “IL-2, pg/mL stimulated” value in the assay on Jurkat cells (setting [1]) is listed as “B (5.0 pg/mL≤IL-2<25.0 pg/mL)”. The IC50 on recombinant HPK1 protein was below 50 nM.

Turning to `CN(C)Cc1noc(-c2cnc(Nc3ccc4c(c3)CNC4=O)nc2N[C@H](CO)c2ccccc2)n1` [Compound 585, 5-[[5-[3-[(dimethylamino)methyl]-1,2,4-oxadiazol-5-yl]-4-[[(1S)-2-hydroxy-1-phenyl-ethyl]amino]pyrimidin-2-yl]amino]isoindolin-1-one], in the assay with Jurkat cells (setting [3]), the “IL-2, pg/mL stimulated” value is “D (150 pg/mL≤IL-2)”. At recombinant HPK1 protein, the IC50 was below 50 nM.

With `CCOC(=O)c1cnc(Nc2ccc3c(c2)CCC(=O)N3)nc1N[C@H](CO)c1ccccc1` [Compound 46, Ethyl 4-[[(1S)-2-hydroxy-1-phenyl-ethyl]amino]-2-[(2-oxo-3,4-dihydro-1H-quinolin-6-yl)amino]pyrimidine-5-carboxylate], the “IL-2, pg/mL stimulated” value in the assay on Jurkat cells (setting [4]) was “D (150 pg/mL≤IL-2)”. Moreover, on recombinant HPK1 protein, the half-inhibitory concentration (IC50) was below 50 nM.

Take `CCOC(=O)c1cnc(Nc2ccc(S(=O)(=O)C(C)C)cc2)nc1N[C@H](CO)c1ccccc1` [Compound 274, Ethyl 4-{[(1S)-2-hydroxy-1-phenylethyl]amino}-2-{[4-(propan-2-ylsulfonyl)phenyl]amino}pyrimidine-5-carboxylate]: the “IL-2, pg/mL stimulated” value with Jurkat cells (setting [2]) is reported as “B (50 pg/mL≤IL-2<100 pg/mL)”. Further, on recombinant HPK1 protein, the IC50 was 200 to 500 nM.

Take `O=C1NCc2cc(Nc3ncc(-c4nc(CN5CCCC5)no4)c(N[C@H](CO)c4ccccc4)n3)ccc21` [Compound 587, 5-[[4-[[(1S)-2-hydroxy-1-phenyl-ethyl]amino]-5-[3-(pyrrolidin-1-ylmethyl)-1,2,4-oxadiazol-5-yl]pyrimidin-2-yl]amino]isoindolin-1-one]: in the assay on Jurkat cells (setting [3]), the “IL-2, pg/mL stimulated” value is on record as “D (150 pg/mL≤IL-2)”. For the same molecule, at recombinant HPK1 protein, the IC50 is below 50 nM.

Take `Cc1cc(Nc2ncc([N+](=O)[O-])c(N[C@H](CO)c3ccccc3)n2)ccc1S(C)(=O)=O` [Compound 18, (2S)-2-[[2-(3-methyl-4-methylsulfonyl-anilino)-5-nitro-pyrimidin-4-yl]amino]-2-phenyl-ethanol]: in the assay on Jurkat cells (setting [2]), the “IL-2, pg/mL stimulated” value is recorded as “D (150 pg/mL≤IL-2)”. For the same molecule, the IC50 at recombinant HPK1 protein lay in the range of 200 to 500 nM.

In the case of `CCOC(=O)c1cnc(Nc2ccc(S(C)(=O)=O)c(OC)c2)nc1N[C@H](CO)c1ccccc1` [Compound 300, Ethyl 4-{[(1S)-2-hydroxy-1-phenylethyl]amino}-2-{[3-methoxy-4-(methylsulfonyl)phenyl]amino}pyrimidine-5-carboxylate], the “IL-2, pg/mL stimulated” value in the assay on Jurkat cells (setting [2]) is reported as “A (IL-2<50 pg/mL)”. For the same molecule, the 50% inhibitory concentration (IC50) at recombinant HPK1 protein lay in the range of 50 to 200 nM.

Regarding `CCOC(=O)CCCCCc1nnc(-c2cnc(Nc3ccc(S(C)(=O)=O)c(C)c3)nc2N[C@H](CO)c2ccccc2)o1` [Compound 561, Ethyl 6-[5-[4-[[(1S)-2-hydroxy-1-phenyl-ethyl]amino]-2-(3-methyl-4-methylsulfonyl-anilino)pyrimidin-5-yl]-1,3,4-oxadiazol-2-yl]hexanoate], in the assay with Jurkat cells (setting [4]), the “IL-2, pg/mL stimulated” value is reported as “B (50 pg/mL≤IL-2<100 pg/mL)”. At recombinant HPK1 protein, the IC50 was 50 to 200 nM.

With `CCNC(=O)c1cnc(Nc2ccc(S(C)(=O)=O)c(C)c2)nc1N[C@H](CO)c1ccccc1` [Compound 156, N-ethyl-4-{[(1S)-2-hydroxy-1-phenylethyl]amino}-2-{[3-methyl-4-(methylsulfonyl)phenyl]amino}pyrimidine-5-carboxamide], the “IL-2, pg/mL stimulated” value in the assay with Jurkat cells (setting [1]) was “C (25.0 pg/mL≤IL-2<35.0 pg/mL)”. The half-inhibitory concentration (IC50) on recombinant HPK1 protein is 50 to 200 nM.

`CCOC(=O)c1cnc(Nc2ccc3c(c2)CCNC3=O)nc1N[C@H](CO)c1ccc(OC)cc1` [Compound 569, ethyl 4-[[(1S)-2-hydroxy-1-(4-methoxyphenyl)ethyl]amino]-2-[(1-oxo-3,4-dihydro-2H-isoquinolin-6-yl)amino]pyrimidine-5-carboxylate]: the “IL-2, pg/mL stimulated” value with Jurkat cells (setting [1]) is “C (25.0 pg/mL≤IL-2<35.0 pg/mL)”. For the same molecule, the IC50 at recombinant HPK1 protein was below 50 nM.

With `CCOC(=O)c1cnc(Nc2ccc(C(=O)N(C)C)c(C)c2)nc1N[C@H](CO)c1ccccc1` [Compound 125, Ethyl 2-[4-(dimethylcarbamoyl)-3-methyl-anilino]-4-[[(1S)-2-hydroxy-1-phenyl-ethyl]amino]pyrimidine-5-carboxylate], the “IL-2, pg/mL stimulated” value in the assay with Jurkat cells (setting [4]) is “D (150 pg/mL≤IL-2)”. The IC50 at recombinant HPK1 protein is 200 to 500 nM.
